Source: a melting point compilation (Tetko et al.; mined from patent text by program, amines drawn as free bases though some values may be those of a salt)

melting point [°C]	Structure (SMILES)
179 to 180	CC1(CC(=O)O)OCCC2=C1Cc1ccccc12 (stereo unspecified)
140 to 142	NCCC(=O)NCCCO
185 to 195	COc1cc(N2CCN(C)CC2)ccc1-c1nc2c(N[C@H]3[C@@H](C(N)=O)[C@@H]4C=C[C@H]3C4)c(Br)cnc2[nH]1
194	Cc1nc(-c2ccc(S(C)(=O)=O)cc2)c(-c2ccc(-c3cscn3)cc2)s1
199 to 203	Fc1ccc2c(NCc3ccccc3)nc(-c3cccnc3)nc2c1
> 270	CCCC1=C(C#N)C(c2ccccc2Cl)c2c(n[nH]c2-c2ccccc2OC)N1 (stereo unspecified)
237 to 239	Cn1cc(C(=O)NCc2ccc(Cl)cc2)c(=O)c2cc(CCl)cc(I)c21
175 to 176	C#CC(C)(O)C1CCC2C3CC=C4CC(OC)CCC4(C)C3CCC21C (stereo unspecified)
100	Cc1cnc2nc(C(F)(F)F)n(C)c2c1
87 to 92	CCS(=O)(=O)Nc1cccc(SCc2ccccc2)n1
181 to 183	Cc1cc(C)c(C(=O)ON2C(C)(C)c3ccccc3C2(C)C)c(C)c1
128	CC1ON(C)C(=O)C(C(=O)c2ccc(Cl)cc2[N+](=O)[O-])C1=O (stereo unspecified)
172 to 173	COc1ccn(-c2ccc(C3CCN(S(=O)(=O)C(C)(C)C(=O)NO)CC3)cc2C)n1
> 320	O=C(O)c1ccc(-c2n[nH]c3c2Cc2ccccc2-3)cc1
62 to 64	CNS(=O)(=O)c1ccccc1C
227 to 229	C=CC(=O)Nc1ccc2ncnc(Nc3ccc(OCc4ccccc4)cc3)c2c1
152	CNC1NC(=O)c2ccccc21 (stereo unspecified)
68 to 70	Cc1cc(C)c(Oc2nc(C)nc(Cl)c2Cl)c(C)c1
272	CCOC(=O)c1ncn2c3cccc(Br)c3c(=O)n(C)c12
> 300	Oc1ncnc2[nH]c(-c3ccccc3)cc12
220 to 222	Cn1c(COc2ccc(CC3SC(=O)NC3=O)cc2)nc2ccc(Oc3ccc4cccc(NC(=O)NCc5ccccc5)c4c3)cc21 (stereo unspecified)
42 to 43	C=COCCCCOC(=O)CCCCCCCCCCC(=O)OCCCCOC=C
126 to 128	CN(C)C(=O)n1nc(C(C)(C)C)cc1S(C)(=O)=O
294 to 297	Nc1nc(=O)n(C(=O)NC2CCCC2)cc1F
81 to 83	Cc1ccc(S(=O)(=O)N2CCN([C@H](C)[C@](O)(Cn3cncn3)c3ccc(F)cc3F)CC2)cc1

melting point [°C]	Structure (SMILES)
123 to 125	CS(=O)(=O)c1ccccc1-c1ccn[nH]c1=O
94 to 95	COc1cccc(CC(=O)O)c1OCCCc1cn(-c2ccc(C(F)(F)F)cn2)nc1C(C)(C)C
196 to 197	CC(C)NCC(=O)Nc1cccc2c1C(=O)c1c(NC(=O)CNC(C)C)cccc1C2=O
194 to 195	CCON1CCC(C#N)(NC(=O)Cc2c(C)cc(C)cc2C)CC1
145 to 146	OC(CCCN1CCCCC1)c1ccc2c(c1)Cc1cc(C(O)CCCN3CCCCC3)ccc1O2 (stereo unspecified)
75 to 78	CCCCCCCCN(C)C(=O)C(C)(C)n1cc(C)c(-c2ccccc2)n1
168 to 170	COc1ccc(CNc2nnc(Cl)c3cc(Cl)ccc23)cc1Cl
178 to 181	O=C(Nc1ccc(C(F)(F)F)cc1)Nc1cccc(Oc2ccccc2)c1
211 to 213	N#Cc1cc(I)c(I)[nH]1
79 to 80	COc1ccc2c(c1)CC[C@@H](O)[C@@H]2N1CCCC1 (relative stereo)
108 to 110	CN(C(=O)OC(C)(C)C)c1cc(OCc2ccccc2)ccc1[N+](=O)[O-]
181	O=C(Nc1cccnc1S(=O)(=O)c1ccccc1)N[C@@H](Cc1ccc(NC(=O)c2c(Cl)cccc2Cl)cc1)C(=O)O
198 to 200	CC(=O)Nc1ccc(C(=O)N2CCOCC2)cc1N
98 to 100	COc1cccc(OC2COc3ccc(OCc4ccccc4)cc3C2=O)c1 (stereo unspecified)
259 to 261	CCn1cc(C(=O)O)c(=O)c2cnc(N3CCN(Cc4ccc([N+](=O)[O-])cc4)CC3)nc21
129 to 130	CCNC(=O)Nc1ccc(CC(CO)NCC(O)COc2ccccc2)cc1 (stereo unspecified)
83.9 to 85.6	COCCCCCCCCCCCC(N)=O
244 to 246	CCc1nc(N)nc(N)c1-c1ccc(NCc2ccc(Cl)c(Cl)c2)c([N+](=O)[O-])c1
322 to 324	Cc1nc2c(N)nc3cnccc3c2n1CC(C)C
200 to 202	c1cc(COc2ccc3ccccc3c2)cc(-c2nnn[nH]2)c1
151 to 152	CC1=C(C(=O)O)C(c2cccc([N+](=O)[O-])c2)C(C(=O)OCCNC(=O)c2cccnc2)=C(C)N1 (stereo unspecified)
111	Cc1ccc(S(=O)(=O)N(C)CC(=O)N2CCC[C@H]2C=O)cc1
101 to 103	CCC(CC)NC(=O)c1ccc(-c2scc(-c3ccccc3Cl)c2CC(=O)O)cc1
88 to 90	COC(=O)C(C)c1nsc2ccc([N+](=O)[O-])cc12 (stereo unspecified)
258 to 259	CC(=O)c1c(F)cc2c(=O)c(C(=O)O)cn3c2c1OCC3C (stereo unspecified)

melting point [°C]	Structure (SMILES)
318 to 320	N#Cc1ccc(-c2cccc(-c3nc4cc(C#N)ccc4[nH]3)c2O)cc1
133	CNc1nc(NC)nc(NC)n1
92	CCN(CC)C(=O)c1cc2ccccc2c(-c2cccc(F)c2)n1
55 to 58	C=CCOC(=O)NCc1noc([C@H](CS)NC(=O)OC(C)(C)C)n1
174 to 175	O=C1c2ccccc2C(=O)N1OCc1nc(=O)c(O)c[nH]1
220 to 222	N#CC(N)=C(C#N)N=Cc1cnn(-c2ncc(C(F)(F)F)cc2Cl)n1
97 to 100	CCOC(=O)Nc1ccc(OC)cc1C(C)=O
179 to 181	O=c1c2ccccc2[nH]n1C(c1ccccc1)c1ccccc1
81 to 83	CCCCCCCCCCCCCCCC(=O)C1=C(O)COC1=O
147 to 148	COc1cc2c3ccc(OC)c(OC)c3n(Cc3ccc(C#N)cc3)c2cc1OC
255 to 257	Cc1cc2c(cc1C1=NNC(=O)CC1)NC(=O)CO2
183 to 184	NC(=O)CNC(=O)c1cccc(-c2ccnc3cc(Cc4cccc(C(F)(F)F)c4)sc23)c1
123 to 125	CCCC[C@H](NC(=O)C(CSC(C)=O)C(F)(F)F)C(=O)O (stereo partly specified)
245 to 247	CC(C)(CN)c1ccc(C(=O)Nc2cn3cc(Cl)ccc3n2)cc1
195	CC(C)c1ccc(C2c3[nH]c4ccccc4c3CCN2C(=O)C=Cc2cccc([N+](=O)[O-])c2)cc1 (stereo unspecified)
183 to 185	COC(=O)c1cnc(C(=O)O)cn1
72 to 74	CCOC(=O)[C@H](C)Oc1ccc2cc(Br)ccc2c1
168	CCC(CC)Oc1cc(C)nc(Oc2c(C)cc(C(=O)O)cc2C)c1C
162 to 164	Nc1nc2ccc(Cc3ccc(F)cc3)cc2s1
84	CCC1=NNC(C)=C(C(=O)OCCOC(C)C)C1c1cccc([N+](=O)[O-])c1 (stereo unspecified)
120 to 130	Cc1cc(-c2cccc(-c3ccc(CCCNC4CCc5ccccc5C4)cc3)n2)c(C)[nH]1 (stereo unspecified)
84 to 85	CCCCCCCCCCCCCCOc1ccc(CC(=O)CO)cc1
181 to 182	COc1cc(COc2nn(-c3ccccc3)cc2/C=C/c2csc(C)n2)ccc1OCc1nc(-c2ccc(CC(=O)O)cc2)oc1C
105 to 107	O=S(=O)(/C=C/c1ccc(Cl)cc1)Nc1ccc(F)cc1
131	CC1=C(C(=O)OCc2ccccc2)C(c2ccccc2C(F)(F)F)c2c(ccnc2OC(C)C)N1 (stereo unspecified)

melting point [°C]	Structure (SMILES)
183 to 185	Cc1ncn(-c2ccc(CNC(=O)c3nc4n(c(=O)c3OCc3ccccc3)CCOC4(C)C)c(F)c2)n1
182 to 183	CSc1c(CC(=O)O)ccc2c3ccccc3n(Cc3ccccc3)c12
260	COc1ccc2c(O)c(C(=O)N(O)c3ccccc3)cnc2c1
80 to 100	CCOC(=O)C(Cc1cccc2cccnc12)(NC(=O)CC)C(=O)OCC
95 to 97	CN(C)CCNc1nc2cc(Cl)c(Cl)cc2nc1-c1ccccn1
156 to 158	OCc1c(OCc2ccccc2)ccc2c1CC[C@@H](NC1CCC1)[C@@H]2O (relative stereo)
232 to 234	Nc1nc(N)c(C(=O)n2ccnc2)nc1Cl
135 to 136	COc1ccc(CSc2nnc(-c3ccc4occc4c3)o2)cc1C(F)(F)F
115 to 116	C=CCn1c(C)c(C)c2cnnc(OCc3ccccc3)c21
46 to 48	CCOC(=O)C(Cc1ccc(OCCN2CCC(C)(C)c3cc(C(=NO)c4ccccc4)ccc32)cc1)OCC (stereo unspecified)
55 to 59	O=C(SC1CCN(C(C(=O)C2CC2)c2ccccc2F)CC1)c1ccccc1 (stereo unspecified)
55 to 57	CCC(=O)C1=C(O)OC(C)(C)OC1=O
232 to 233	Cn1ccc(-c2ccc(C(=O)O)c(Cl)c2)n1
205 to 207	CC1(C)CC(=O)c2c(nc(Cc3ccc(Cl)cc3)c3[nH]c4ccccc4c23)C1
140 to 142	CC(C)Oc1cc(COc2cc(CCC(=O)O)n(-c3ccccc3)n2)cc(COc2ncc(C(F)(F)F)cc2Cl)c1
257	CCOC(=O)c1c(C)[nH]c2ccc(C(=O)c3c(C)c(OC)c4ccccn34)cc2c1=O
73 to 74	CC(C)SN1N=C(c2cccc([N+](=O)[O-])c2)C(SC(C)C)(SC(C)C)C1=O
135 to 140	CC(=O)COc1cccnc1C(N)=O
172 to 173	O=c1[nH]c(N2CCN(CCCCN3CCCCC3)CC2)cc2c(Cl)cccc12
152 to 154	CCSc1ccc(-c2cnccn2)c2c1C(=O)CC(C)C2 (stereo unspecified)
162 to 164	CC1CN(N)C(=O)N1C (stereo unspecified)
208 to 209	Cn1cccc1-c1cc2nccnc2[nH]1

Structure (SMILES)	melting point [°C]
Cc1nnc2ccc(-c3cccc(C(F)(F)F)c3)nn12	193 to 194
CCOC(=O)c1ncn2c1CN(C)C(=O)c1c(C)cccc1-2	146 to 147
COc1ccc([C@@H]2CCCC[C@@H]2N)cc1OC	80 to 81.5
CC1(C)C(C=C2CCSC2=O)C1C(=O)OC(C#N)c1ccc(F)c(Oc2ccccc2)c1 (stereo unspecified)	131
